From patent US9914730B2, “Azaquinazoline inhibitors of Atypical protein Kinase C” (Ignyta, Inc., priority 2012, dated 2018)

What follows are molecules tested against T1, full-length human PKCι (Homo sapiens, UniProt P41743) (assay: PKCι IC50 IMAP assay, full-length PKCι at 150 μM ATP). Conditions: read-out: IC50 in IMAP assay against full length PKCi at 150 μM ATP.
T1 construct: Recombinant, full-length human PKCι expressed in Sf21 insect cells is also commercially available; purchased; host or cells: Sf21 insect cells
T1 sequence (P41743 1-596): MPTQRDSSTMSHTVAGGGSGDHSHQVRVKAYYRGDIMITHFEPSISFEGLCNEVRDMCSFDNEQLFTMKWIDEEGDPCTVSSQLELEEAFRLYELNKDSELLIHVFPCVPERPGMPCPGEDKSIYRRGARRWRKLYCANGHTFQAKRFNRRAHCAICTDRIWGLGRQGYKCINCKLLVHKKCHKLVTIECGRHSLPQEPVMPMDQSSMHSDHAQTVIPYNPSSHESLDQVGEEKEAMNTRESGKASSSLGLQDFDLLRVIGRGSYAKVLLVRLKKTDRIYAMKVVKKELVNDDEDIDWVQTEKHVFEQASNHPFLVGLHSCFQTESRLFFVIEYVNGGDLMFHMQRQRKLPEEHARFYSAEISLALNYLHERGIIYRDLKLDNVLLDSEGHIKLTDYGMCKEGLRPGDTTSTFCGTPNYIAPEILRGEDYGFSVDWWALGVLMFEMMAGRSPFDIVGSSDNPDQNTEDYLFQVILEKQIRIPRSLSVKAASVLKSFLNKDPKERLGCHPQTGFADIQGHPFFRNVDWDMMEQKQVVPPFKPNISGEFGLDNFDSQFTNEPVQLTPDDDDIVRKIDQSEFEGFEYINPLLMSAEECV
Format: biochemical
Outline: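 Compounds in 4% final DMSO are mixed with Sf21-derived full-length human PKCι (typically 15 pM) and 100 nM FAM-labelled pseudosubstrate peptide, then started with 150 μM ATP. Reaction runs 60 min at room temperature, is quenched with IMAP development reagent for 2 h, and fluorescence polarisation is measured to derive IC50.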

CCn1cc(Cl)c(Nc2cc(-c3nc(N4CCNC(C)(C)C4)c4c(C5CC5)cncc4n3)ccn2)n1 [Example 2043, (4-Chloro-1-ethyl-1H-pyrazol-3-yl)-{4-[5-cyclopropyl-4-(3,3-dimethyl-piperazin-1-yl)-pyrido[3,4-d]pyrimidin-2-yl]-pyridin-2-yl}-amine] and Cc1ccc(Nc2cc(-c3nc(N4CCNCC4)c4c(C5CC5)cncc4n3)ccn2)c(Cl)c1 [Example 572, (2-Chloro-4-methyl-phenyl)-[4-(5-cyclopropyl-4-piperazin-1-yl-pyrido[3,4-d]pyrimidin-2-yl)-pyridin-2-yl]-amine] cannot be ordered by IC50: less than 100 nM for the first, less than 100 nM for the second.

Fc1cnc(Nc2ccccc2)cc1-c1nc(N2CCNCC2)c2c(C3CC3)cncc2n1 [Example 654, [4-(5-Cyclopropyl-4-piperazin-1-yl-pyrido[3,4-d]pyrimidin-2-yl)-5-fluoro-pyridin-2-yl]-phenyl-amine] and C[C@@H](Nc1cc(-c2nc(N3CCNCC3)c3c(C4CC4)cncc3n2)ccn1)c1ccccc1F [Example 2067, [4-(5-Cyclopropyl-4-piperazin-1-yl-pyrido[3,4-d]pyrimidin-2-yl)-pyridin-2-yl]-[(R)-1-(2-fluoro-phenyl)-ethyl]-amine] cannot be ordered by IC50: less than 100 nM for the first, less than 100 nM for the second.

C[C@@H]1CN(c2nc(-c3ccnc(Nc4nc(F)c(F)cc4F)c3)nc3cncc(C4CC4)c23)C[C@H](C)N1 [Example 828, {4-[5-Cyclopropyl-4-((3R,5S)-3,5-dimethyl-piperazin-1-yl)-pyrido[3,4-d]pyrimidin-2-yl]-pyridin-2-yl}-(3,5,6-trifluoro-pyridin-2-yl)-amine] and C[C@H]1CN(c2nc(-c3ccnc(Nc4ccccc4F)c3)nc3cncc(C4CC4)c23)CCN1 [Example 691, {4-[5-Cyclopropyl-4-((S)-3-methyl-piperazin-1-yl)-pyrido[3,4-d]pyrimidin-2-yl]-pyridin-2-yl}-(2-fluoro-phenyl)-amine] cannot be ordered by IC50: less than 100 nM for the first, less than 100 nM for the second.

Fc1cccnc1-c1cc2c(-c3nc(N4CCNCC4)c4c(C5CC5)cncc4n3)ccnc2[nH]1 [Example 2179, 5-Cyclopropyl-2-[2-(3-fluoro-pyridin-2-yl)-1H-pyrrolo[2,3-b]pyridin-4-yl]-4-piperazin-1-yl-pyrido[3,4-d]pyrimidine] and CNc1cc(-c2nc(N3CCNCC3)c3c(C4CC4)cncc3n2)ccn1 [Example 630, [4-(5-Cyclopropyl-4-piperazin-1-yl-pyrido[3,4-d]pyrimidin-2-yl)-pyridin-2-yl]-methyl-amine] cannot be ordered by IC50: less than 100 nM for the first, less than 100 nM for the second.

COc1cncc2nc(-c3ccnc(NC(=O)Cc4ccc(Cl)cc4)c3)nc(N3CCNCC3)c12 [Example 369, 2-(4-Chloro-phenyl)-N-[4-(5-methoxy-4-piperazin-1-yl-pyrido[3,4-d]pyrimidin-2-yl)-pyridin-2-yl]-acetamide] and COc1cncc2nc(-c3ccnc(NC(=O)Cc4cccc(C#N)c4)c3)nc(N3CCNCC3)c12 [Example 356, 2-(3-Cyano-phenyl)-N-[4-(5-methoxy-4-piperazin-1-yl-pyrido[3,4-d]pyrimidin-2-yl)-pyridin-2-yl]-acetamide] cannot be ordered by IC50: less than 100 nM for the first, less than 100 nM for the second.

N#Cc1ccnc(Nc2cc(-c3nc(N4CCN[C@@H](CF)C4)c4c(C5CC5)cncc4n3)ccn2)c1 [Example 530, 2-{4-[5-Cyclopropyl-4-((R)-3-fluoromethyl-piperazin-1-yl)-pyrido[3,4-d]-pyrimidin-2-yl]-pyridin-2-ylamino}-iso-nicotinonitrile] and FC(F)(F)c1ccc(Nc2cc(-c3nc(N4CCNCC4)c4c(C5CC5)cncc4n3)ccn2)nc1 [Example 827, [4-(5-Cyclopropyl-4-piperazin-1-yl-pyrido[3,4-d]pyrimidin-2-yl)-pyridin-2-yl]-(5-trifluoromethyl-pyridin-2-yl)-amine] cannot be ordered by IC50: less than 100 nM for the first, less than 100 nM for the second.

CN(c1nc(-c2ccnc(Nc3c(F)cccc3F)c2)nc2cncc(C3CC3)c12)C1CCNCC1 [Example 833, {5-Cyclopropyl-2-[2-(2,6-difluoro-phenylamino)-pyridin-4-yl]-pyrido[3,4-d]pyrimidin-4-yl}-methyl-piperidin-4-yl-amine] and Fc1cccc(F)c1Nc1cc(-c2nc(N[C@@H]3CCNC3)c3c(C4CC4)cncc3n2)ccn1 [Example 2035, {5-Cyclopropyl-2-[2-(2,6-difluoro-phenylamino)-pyridin-4-yl]-pyrido[3,4-d]pyrimidin-4-yl}-(R)-pyrrolidin-3-yl-amine] cannot be ordered by IC50: less than 100 nM for the first, less than 100 nM for the second.

c1cc(-c2nc(N3CCNCC3)c3c(C4CC4)cncc3n2)cc(NC2CCCC2)n1 [Example 281, Cyclopentyl-[4-(5-cyclopropyl-4-piperazin-1-yl-pyrido[3,4-d]pyrimidin-2-yl)-pyridin-2-yl]-amine] and C[C@H]1CN(c2nc(-c3ccnc(NC4CCN(CC(F)(F)F)CC4)c3)nc3cncc(C4CC4)c23)CCN1 [Example 2049, {4-[5-Cyclopropyl-4-((S)-3-methyl-piperazin-1-yl)-pyrido[3,4-d]pyrimidin-2-yl]-pyridin-2-yl}-[1-(2,2,2-trifluoro-ethyl)-piperidin-4-yl]-amine] cannot be ordered by IC50: less than 100 nM for the first, less than 100 nM for the second.

Compared with OCC1CN(c2nc(-c3ccnc4[nH]c(C(F)(F)F)cc34)nc3cncc(C4CC4)c23)C1 [Example 1243, {1-[5-Cyclopropyl-2-(2-tritluoromethyl-1H-pyrrolo[2,3-b]pyridin-4-yl)-pyrido[3,4-d]pyrimidin-4-yl]-azetidin-3-yl}-methanol], Fc1ccc(Nc2cc(-c3nc(N4CCCNCC4)c4c(C5CC5)cncc4n3)ccn2)cc1 [Example 699, [4-(5-Cyclopropyl-4-[1,4]diazepan-1-yl-pyrido[3,4-d]pyrimidin-2-yl)-pyridin-2-yl]-(4-fluoro-phenyl)-amine] is lower in IC50: 1000 to 10000 nM for the first, less than 100 nM for the second.

Compared with COc1cccc(-c2nccc3c(NC[C@@H](N)Cc4ccccc4)nc(-c4ccncc4)nc23)c1 [Example 94, N-[(2S)-2-amino-3-phenylpropyl]-8-(3-methoxy-phenyl)-2-(pyridin-4-yl)-pyrido[3,4-d]-pyrimidin-4-amine], c1ccc(C[C@@H]2CNCCN2c2nc(-c3ccncc3)nc3cnccc23)cc1 [Example 29, (2R)-2-benzyl-1-[2-(pyridin-4-yl)-pyrido[3,4-d]-pyrimidin-4-yl]-piperazine] is higher in IC50: 100 to 1000 nM for the first, 1000 to 10000 nM for the second.

COC(=O)C1CN(c2nc(-c3ccncc3)nc3cncc(OC)c23)CCN1 (stereo not drawn) [Example 155, 4-(5-Methoxy-2-pyridin-4-yl-pyrido[3,4-d]pyrimidin-4-yl)-piperazine-2-carboxylic acid methyl ester] and CN(C)c1ncc(Cl)c2c(N3CCNCC3)nc(-c3ccncc3)nc12 [Example 142, 5-chloro-N,N-dimethyl-4-(piperazin-1-yl)-2-(pyridin-4-yl)pyrido[3,4-d]pyrimidin-8-amine] fall in the same range of IC50: 1000 to 10000 nM for the first, 1000 to 10000 nM for the second.

First: CN(C)CCOc1nc(-c2ccnc(Nc3c(F)cccc3F)c2)nc2cncc(C3CC3)c12 [Example 826, {4-[5-Cyclopropyl-4-(2-dimethylamino-ethoxy)-pyrido[3,4-d]pyrimidin-2-yl]-pyridin-2-yl}-(2,6-difluoro-phenyl)-amine]
Second: COc1cncc2nc(-c3ccnc(Nc4ccc(N5CCOCC5)cc4)c3)nc(N[C@@H]3CCNC3)c12 [Example 229, {5-Methoxy-2-[2-(4-morpholin-4-yl-phenylamino)-pyridin-4-yl]-pyrido[3,4-d]pyrimidin-4-yl}-(R)-pyrrolidin-3-yl-amine]
The IC50 of the first is higher: 100 to 1000 nM for the first, less than 100 nM for the second. The second is the more potent here.
